Values quoted from earlier work in article PMC7288168, “Synthesis and Cytotoxic Activity of Chiral Sulfonamides Based on the 2-Azabicycloalkane Skeleton” (Molecules, 2020).

Test system: D425 cells
Parameters: method as in von Bueren et al. [31]
Conditions: known chemotherapeutics in D425 cells; ref von Bueren et al. [31]; cited from earlier work

COc1cc([C@@H]2c3cc4c(cc3[C@@H](O[C@@H]3O[C@@H]5CO[C@@H](C)O[C@H]5[C@H](O)[C@H]3O)[C@H]3COC(=O)[C@H]23)OCO4)cc(OC)c1O [etoposide]
LD50 D425: 8 µM
